# Assays:
# [1] = system: B. subtilis 168; experiment: fitness (endpoint OD595 vs no drug) (fraction); higher = more growth
# Outline: (§1)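 In 384-well plates at 37 °C, cultures began at OD595 0.01 in 30 µl, with 55 µl used for S. pneumoniae. OD595 readings every 30 min for 14 h were corrected by the first reading. Fitness divides the stationary-phase transition optical density by the robust mean of no-drug control wells. The result is capped at 1.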
# [2] = system: S. aureus DSM 20231; experiment: as above
# Outline: as §1
# [3] = system: B. subtilis 168; experiment: Bliss interaction score (quartile over a dose matrix) (fitness difference); higher = more antagonism (negative = synergy)
# Outline: (§2)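 Quartiles summarise the Bliss score over technical, biological and donor/recipient replicates, where the score is observed minus expected fitness under a product model. Expected fitness uses single-drug values inferred from combination data. Fitness is OD595 at entry into stationary phase over the plate's robust no-drug mean, capped at 1.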
# [4] = system: S. aureus DSM 20231; experiment: as above
# Outline: as §2
# [5] = system: S. aureus Newman; experiment: as above
# Outline: as §2
# [6] = system: S. pneumoniae D39V; experiment: as above
# Outline: as §2
# [7] = system: S. aureus Newman; experiment: fitness (endpoint OD595 vs no drug) (fraction); higher = more growth
# Outline: as §1
# [8] = first compound 0.125 µg/mL, partner 0.0625 µg/mL
# [9] = first compound 0.125 µg/mL, partner 0.125 µg/mL
# [10] = first compound 0.25 µg/mL, partner 0.0625 µg/mL
# [11] = first compound 0.25 µg/mL, partner 0.125 µg/mL
# [12] = first compound 0.125 µg/mL, partner 0.75 µg/mL
# [13] = first compound 0.125 µg/mL, partner 1.5 µg/mL
# [14] = first compound 0.25 µg/mL, partner 0.75 µg/mL
# [15] = first compound 0.25 µg/mL, partner 1.5 µg/mL
# [16] = first compound 0.25 µg/mL, partner 3 µg/mL
# [17] = first compound 0.5 µg/mL, partner 0.75 µg/mL
# [18] = first compound 0.5 µg/mL, partner 1.5 µg/mL
# [19] = first compound 0.5 µg/mL, partner 3 µg/mL
# 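Throughout, for Bliss interaction score (quartile over a dose matrix): first quartile when negative (synergy) and third quartile when positive (antagonism).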
smiles,measurement,setting,value
Cc1onc(-c2ccccc2)c1C(=O)N[C@@H]1C(=O)N2[C@@H]1SC(C)(C)[C@@H]2C(=O)O [Oxacillin] + COc1cc(Cc2cnc(N)nc2N)cc(OC)c1OC [Trimethoprim],fitness,"[1]; first compound 0.002 µg/mL, partner 0.5 µg/mL",0.46
same,fitness,"[1]; first compound 0.002 µg/mL, partner 1 µg/mL, one replicate",0.498
same,fitness,"[1]; first compound 0.002 µg/mL, partner 2 µg/mL, one replicate",0.37
same,fitness,"[1]; first compound 0.004 µg/mL, partner 0.5 µg/mL",0.475
same,fitness,"[1]; first compound 0.004 µg/mL, partner 1 µg/mL, one replicate",0.418
same,fitness,"[1]; first compound 0.004 µg/mL, partner 2 µg/mL, one replicate",0.257
same,fitness,"[1]; first compound 0.0078 µg/mL, partner 0.1 µg/mL, one replicate",0.898
same,fitness,"[1]; first compound 0.0078 µg/mL, partner 0.125 µg/mL, one replicate",0.385
same,fitness,"[1]; first compound 0.0078 µg/mL, partner 0.2 µg/mL, one replicate",0.804
same,fitness,"[1]; first compound 0.0078 µg/mL, partner 0.4 µg/mL, one replicate",0.578
same,fitness,"[1]; first compound 0.008 µg/mL, partner 0.5 µg/mL",0.467
same,fitness,"[1]; first compound 0.008 µg/mL, partner 1 µg/mL, one replicate",0.351
same,fitness,"[1]; first compound 0.008 µg/mL, partner 2 µg/mL, one replicate",0.304
same,fitness,"[1]; first compound 0.0155 µg/mL, partner 0.1 µg/mL, one replicate",0.839
same,fitness,"[1]; first compound 0.0155 µg/mL, partner 0.125 µg/mL, one replicate",0.363
same,fitness,"[1]; first compound 0.0155 µg/mL, partner 0.2 µg/mL, one replicate",0.802
same,fitness,"[1]; first compound 0.0155 µg/mL, partner 0.4 µg/mL, one replicate",0.599
same,fitness,"[1]; first compound 0.031 µg/mL, partner 0.1 µg/mL, one replicate",0.882
same,fitness,"[1]; first compound 0.031 µg/mL, partner 0.125 µg/mL, one replicate",0.352
same,fitness,"[1]; first compound 0.031 µg/mL, partner 0.2 µg/mL, one replicate",0.763
same,fitness,"[1]; first compound 0.031 µg/mL, partner 0.4 µg/mL, one replicate",0.536
same,fitness,"[1]; first compound 0.031 µg/mL, partner 0.5 µg/mL",0.384
same,fitness,"[1]; first compound 0.075 µg/mL, partner 0.125 µg/mL, one replicate",0.0694
same,fitness,"[1]; first compound 0.075 µg/mL, partner 0.25 µg/mL, one replicate",0.0331
same,fitness,"[1]; first compound 0.075 µg/mL, partner 0.5 µg/mL, one replicate",0.026
same,fitness,"[1]; first compound 0.15 µg/mL, partner 0.125 µg/mL, one replicate",0.0313
same,fitness,"[1]; first compound 0.15 µg/mL, partner 0.25 µg/mL, one replicate",0.0424
same,fitness,"[1]; first compound 0.15 µg/mL, partner 0.5 µg/mL, one replicate",0.0705
same,fitness,"[1]; first compound 0.3 µg/mL, partner 0.125 µg/mL, one replicate",0.0436
same,fitness,"[1]; first compound 0.3 µg/mL, partner 0.25 µg/mL, one replicate",0.0503
same,fitness,"[1]; first compound 0.3 µg/mL, partner 0.5 µg/mL, one replicate",0.0489
same,fitness,"[2]; first compound 0.0156 µg/mL, partner 0.125 µg/mL, one replicate",0.558
same,fitness,"[2]; first compound 0.0156 µg/mL, partner 0.25 µg/mL",0.561
same,fitness,"[2]; first compound 0.0156 µg/mL, partner 0.5 µg/mL",0.129
same,fitness,"[2]; first compound 0.0156 µg/mL, partner 1 µg/mL",0.0621
same,fitness,"[2]; first compound 0.0312 µg/mL, partner 0.125 µg/mL, one replicate",0.523
same,fitness,"[2]; first compound 0.0312 µg/mL, partner 0.25 µg/mL",0.559
same,fitness,"[2]; first compound 0.0312 µg/mL, partner 0.5 µg/mL",0.147
same,fitness,"[2]; first compound 0.0312 µg/mL, partner 1 µg/mL",0.0523
same,fitness,"[2]; first compound 0.0625 µg/mL, partner 0.125 µg/mL, one replicate",0.477
same,fitness,"[2]; first compound 0.0625 µg/mL, partner 0.25 µg/mL",0.438
same,fitness,"[2]; first compound 0.0625 µg/mL, partner 0.5 µg/mL",0.0674
same,fitness,"[2]; first compound 0.0625 µg/mL, partner 1 µg/mL",0.0399
same,Bliss interaction score,[3],0.0589
same,Bliss interaction score,[4],0.0401
same,Bliss interaction score,[5],-0.0935
same,Bliss interaction score,[6],0.164
CC[C@H]1OC(=O)[C@H](C)[C@@H](O[C@H]2C[C@@](C)(OC)[C@@H](O)[C@H](C)O2)[C@H](C)[C@@H](O[C@@H]2O[C@H](C)C[C@H](N(C)C)[C@H]2O)[C@](C)(O)C[C@@H](C)CN(C)[C@H](C)[C@@H](O)[C@]1(C)O [Azithromycin] + Cn1nnc(-c2ccc(-c3ccc(N4C[C@H](CO)OC4=O)cc3F)cn2)n1 [Tedizolid],fitness,[2]; [8],0.887
same,fitness,[2]; [9],0.7
same,fitness,"[2]; first compound 0.125 µg/mL, partner 0.25 µg/mL",0.165
same,fitness,[2]; [10],0.765
same,fitness,[2]; [11],0.667
same,fitness,"[2]; first compound 0.25 µg/mL, partner 0.25 µg/mL",0.231
same,fitness,"[2]; first compound 0.5 µg/mL, partner 0.125 µg/mL",0.294
same,fitness,"[2]; first compound 0.5 µg/mL, partner 0.25 µg/mL",0.0821
same,fitness,[7]; [8],0.867
same,fitness,[7]; [9],0.744
same,fitness,[7]; [10],0.818
same,fitness,[7]; [11],0.644
same,Bliss interaction score,[3],-0.0935
same,Bliss interaction score,[4],-0.0615
same,Bliss interaction score,[5],-0.14
same,Bliss interaction score,[6],0.0648
CC[C@H]1OC(=O)[C@H](C)[C@@H](O[C@H]2C[C@@](C)(OC)[C@@H](O)[C@H](C)O2)[C@H](C)[C@@H](O[C@@H]2O[C@H](C)C[C@H](N(C)C)[C@H]2O)[C@](C)(O)C[C@@H](C)CN(C)[C@H](C)[C@@H](O)[C@]1(C)O [Azithromycin] + O=C(N[C@H](CO)[C@H](O)c1ccc([N+](=O)[O-])cc1)C(Cl)Cl [Chloramphenicol],fitness,[2]; [12],0.703
same,fitness,[2]; [13],0.544
same,fitness,"[2]; first compound 0.125 µg/mL, partner 3 µg/mL",0.155
same,fitness,[2]; [14],0.657
same,fitness,[2]; [15],0.366
same,fitness,[2]; [16],0.113
same,fitness,[2]; [17],0.29
same,fitness,[2]; [18],0.139
same,fitness,[2]; [19],0.0604
same,fitness,[7]; [12],0.76
same,fitness,[7]; [13],0.515
same,fitness,[7]; [14],0.692
same,fitness,[7]; [15],0.527
same,fitness,[7]; [16],0.2
same,fitness,[7]; [17],0.461
same,fitness,[7]; [18],0.253
same,fitness,[7]; [19],0.109
same,Bliss interaction score,[3],-0.116
same,Bliss interaction score,[4],-0.153
same,Bliss interaction score,[5],-0.101
same,Bliss interaction score,[6],0.0336
